Test results: BindingDB's records for doi:10.1016/0968-0896(96)00075-2 (Sapienza University of Rome, 1996)

Molecular target: T1, Gag-Pol polyprotein [588-1027]/[588-1147] (Human immunodeficiency virus 1, UniProt P04585)
T1 construct: 588-1027; 588-1147
Test: HIV-1 RT Assay
Settings: pH 7.8; 37 °C

Compound	IC50 [µM]
Cn1c2ccccc2n2c(c3cccn31)=C(O)N(CCN1CCOCC1)CC2=O [7-methyl-17-[2-(morpholin-4-yl)ethyl]-6,7,14,17-tetraazatetracyclo[12.4.0.0^{2,6}.0^{8,13}]octadeca-2,4,8(13),9,11-pentaene-15,18-dione]	6.3
O=C1Nc2ccccc2S(=O)(=O)n2cccc21 [2-thia-3,9-diazatricyclo[8.4.0.0^{3,7}]tetradeca-1(10),4,6,11,13-pentaene-2,2,8-trione]	4
CCN1C(=O)c2cccn2S(=O)(=O)c2ccccc21 [9-ethyl-2-thia-3,9-diazatricyclo[8.4.0.0^{3,7}]tetradeca-1(10),4,6,11,13-pentaene-2,2,8-trione]	10
CCOC(=O)CN1C(=O)c2cccn2S(=O)(=O)c2ccccc21 [ethyl 2-(2,2,8-trioxo-2-thia-3,9-diazatricyclo[8.4.0.0^{3,7}]tetradeca-1(10),4,6,11,13-pentaen-9-yl)acetate]	31
CCN1C(=O)c2cccn2S(=O)(=O)c2cc(Cl)ccc21 [13-chloro-9-ethyl-2-thia-3,9-diazatricyclo[8.4.0.0^{3,7}]tetradeca-1(10),4,6,11,13-pentaene-2,2,8-trione]	2.7
CN1C(=O)c2cccn2S(=O)(=O)c2ccccc21 [10-methyi-5H-pyrrolo1,2-b] [1,2,5] benzothiadiazepin-11(10H)-one-5,5-dioxide]	11
CCCN1C(=O)c2cccn2S(=O)(=O)c2ccccc21 [9-propyl-2-thia-3,9-diazatricyclo[8.4.0.0^{3,7}]tetradeca-1(10),4,6,11,13-pentaene-2,2,8-trione]	24
O=C1Nc2ccc(Cl)cc2S(=O)(=O)n2cccc21 [13-chloro-2-thia-3,9-diazatricyclo[8.4.0.0^{3,7}]tetradeca-1(10),4,6,11,13-pentaene-2,2,8-trione]	0.7
CC(C)N1C(=O)c2cccn2S(=O)(=O)c2ccccc21 [9-(propan-2-yl)-2-thia-3,9-diazatricyclo[8.4.0.0^{3,7}]tetradeca-1(10),4,6,11,13-pentaene-2,2,8-trione]	6.3
O=C1Nc2ccccc2Sn2cccc21 [5H-Pyrrolo [1,2-b] [1,2,5] benzothiadiazepin-11 (10H) -one]	> 100
CN1C(=O)c2cccn2S(=O)(=O)c2cc(Cl)ccc21 [13-chloro-9-methyl-2-thia-3,9-diazatricyclo[8.4.0.0^{3,7}]tetradeca-1(10),4,6,11,13-pentaene-2,2,8-trione]	0.5
C=CCN1C(=O)c2cccn2S(=O)(=O)c2ccccc21 [9-(prop-2-en-1-yl)-2-thia-3,9-diazatricyclo[8.4.0.0^{3,7}]tetradeca-1(10),4,6,11,13-pentaene-2,2,8-trione]	9.5
C=CCN1C(=O)c2cccn2S(=O)(=O)c2cc(Cl)ccc21 [13-chloro-9-(prop-2-en-1-yl)-2-thia-3,9-diazatricyclo[8.4.0.0^{3,7}]tetradeca-1(10),4,6,11,13-pentaene-2,2,8-trione]	2.9
CN(C)CCCN1CC(=O)n2c(c3cccn3n(C)c3ccccc32)=C1O [17-[3-(dimethylamino)propyl]-7-methyl-6,7,14,17-tetraazatetracyclo[12.4.0.0^{2,6}.0^{8,13}]octadeca-2,4,8(13),9,11-pentaene-15,18-dione]	24
C/C=C/CN1C(=O)c2cccn2S(=O)(=O)c2ccccc21 [9-[(2E)-but-2-en-1-yl]-2-thia-3,9-diazatricyclo[8.4.0.0^{3,7}]tetradeca-1(10),4,6,11,13-pentaene-2,2,8-trione]	21
C/C=C\CN1C(=O)c2cccn2S(=O)(=O)c2cc(Cl)ccc21 [9-[(2Z)-but-2-en-1-yl]-13-chloro-2-thia-3,9-diazatricyclo[8.4.0.0^{3,7}]tetradeca-1(10),4,6,11,13-pentaene-2,2,8-trione]	3.1
Cn1c2ccccc2n2c(c3cccn31)=C(O)N(CCN1CCCCC1)CC2=O [7-methyl-17-[2-(piperidin-1-yl)ethyl]-6,7,14,17-tetraazatetracyclo[12.4.0.0^{2,6}.0^{8,13}]octadeca-2,4,8(13),9,11-pentaene-15,18-dione]	> 100
